Source: the supplement of paper PMC10307832

Legend:
Assay in all cases: relative viability (nuclei count vs DMSO), 5 days (fraction); higher = more cells survive
ABC-1 = system: ABC-1
Procedure, shortened: (§1)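 Each reported value is a median over duplicate plates. It expresses relative viability: treated-well nuclei count divided by vehicle-well nuclei count. Lung cancer cell lines in 1536-well plates were dosed by pin tool a day after seeding, alone with one drug or with a fixed anchor-drug dose plus five library-drug doses (not always all listed) in √10 steps, and nuclei were counted after 5 days.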

CAL-12T = system: CAL-12T
Procedure, shortened: as §1

ChaGo-K-1 = system: ChaGo-K-1
Procedure, shortened: as §1

EPLC-272H = system: EPLC-272H
Procedure, shortened: as §1

LC-2-ad = system: LC-2-ad
Procedure, shortened: as §1

LOU-NH91 = system: LOU-NH91
Procedure, shortened: as §1

LU99A = system: LU99A
Procedure, shortened: as §1

NCI-H1395 = system: NCI-H1395
Procedure, shortened: as §1

NCI-H1651 = system: NCI-H1651
Procedure, shortened: as §1

NCI-H1734 = system: NCI-H1734
Procedure, shortened: as §1

NCI-H1755 = system: NCI-H1755
Procedure, shortened: as §1

NCI-H1793 = system: NCI-H1793
Procedure, shortened: as §1

NCI-H1944 = system: NCI-H1944
Procedure, shortened: as §1

NCI-H2087 = system: NCI-H2087
Procedure, shortened: as §1

NCI-H2170 = system: NCI-H2170
Procedure, shortened: as §1

NCI-H2228 = system: NCI-H2228
Procedure, shortened: as §1

NCI-H2405 = system: NCI-H2405
Procedure, shortened: as §1

NCI-H3122 = system: NCI-H3122
Procedure, shortened: as §1

NCI-H460 = system: NCI-H460
Procedure, shortened: as §1

PC-3 [JPC-3] = system: PC-3 [JPC-3]
Procedure, shortened: as §1

RERF-LC-KJ = system: RERF-LC-KJ
Procedure, shortened: as §1

UMC-11 = system: UMC-11
Procedure, shortened: as §1

SMILES: C[C@@H]1CN(CC(=O)Nc2ccc3c(c2)Cc2cccc(-c4cc(=O)cc(N5CCOCC5)o4)c2S3)C[C@H](C)O1 + CCNC(=O)c1noc(-c2cc(C(C)C)c(O)cc2O)c1-c1ccc(CN2CCOCC2)cc1 [Luminespib] (partner 0.01 µM)
- relative viability (ABC-1; first compound 0.1265 µM): 0.64
- relative viability (ABC-1; first compound 0.4 µM): 0.633
- relative viability (ABC-1; first compound 4 µM): 0.521
- relative viability (CAL-12T; first compound 0.04 µM): 0.302
- relative viability (CAL-12T; first compound 0.1265 µM): 0.408
- relative viability (CAL-12T; first compound 0.4 µM): 0.613
- relative viability (CAL-12T; first compound 4 µM): 0.168
- relative viability (ChaGo-K-1; first compound 0.04 µM): 0.598
- relative viability (ChaGo-K-1; first compound 0.1265 µM): 0.596
- relative viability (ChaGo-K-1; first compound 0.4 µM): 0.512
- relative viability (ChaGo-K-1; first compound 4 µM): 0.394
- relative viability (EPLC-272H; first compound 0.04 µM): 0.519
- relative viability (EPLC-272H; first compound 0.1265 µM): 0.381
- relative viability (EPLC-272H; first compound 0.4 µM): 0.26
- relative viability (EPLC-272H; first compound 4 µM): 0.254
- relative viability (LC-2-ad; first compound 0.04 µM): 0.986
- relative viability (LC-2-ad; first compound 0.1265 µM): 0.912
- relative viability (LC-2-ad; first compound 0.4 µM): 0.979
- relative viability (LC-2-ad; first compound 4 µM): 0.953
- relative viability (LOU-NH91; first compound 0.04 µM): 0.39
- relative viability (LOU-NH91; first compound 0.1265 µM): 0.358
- relative viability (LOU-NH91; first compound 0.4 µM): 0.3
- relative viability (LOU-NH91; first compound 4 µM): 0.371
- relative viability (LU99A; first compound 0.04 µM): 0.304
- relative viability (LU99A; first compound 0.1265 µM): 0.192
- relative viability (LU99A; first compound 0.4 µM): 0.26
- relative viability (LU99A; first compound 4 µM): 0.231
- relative viability (NCI-H1395; first compound 0.04 µM): 0.695
- relative viability (NCI-H1395; first compound 0.1265 µM): 0.627
- relative viability (NCI-H1395; first compound 0.4 µM): 0.69
- relative viability (NCI-H1395; first compound 4 µM): 0.741
- relative viability (NCI-H1651; first compound 0.04 µM): 0.891
- relative viability (NCI-H1651; first compound 0.1265 µM): 0.719
- relative viability (NCI-H1651; first compound 0.4 µM): 0.885
- relative viability (NCI-H1651; first compound 4 µM): 0.634
- relative viability (NCI-H1734; first compound 0.04 µM): 0.264
- relative viability (NCI-H1734; first compound 0.1265 µM): 0.212
- relative viability (NCI-H1734; first compound 0.4 µM): 0.195
- relative viability (NCI-H1734; first compound 4 µM): 0.291
- relative viability (NCI-H1755; first compound 0.04 µM): 0.398
- relative viability (NCI-H1755; first compound 0.1265 µM): 0.361
- relative viability (NCI-H1755; first compound 0.4 µM): 0.45
- relative viability (NCI-H1755; first compound 4 µM): 0.258
- relative viability (NCI-H1793; first compound 0.04 µM): 0.141
- relative viability (NCI-H1793; first compound 0.1265 µM): 0.177
- relative viability (NCI-H1793; first compound 0.4 µM): 0.164
- relative viability (NCI-H1793; first compound 4 µM): 0.135
- relative viability (NCI-H1944; first compound 0.04 µM): 0.676
- relative viability (NCI-H1944; first compound 0.1265 µM): 0.729
- relative viability (NCI-H1944; first compound 0.4 µM): 0.938
- relative viability (NCI-H1944; first compound 4 µM): 0.824
- relative viability (NCI-H2087; first compound 0.04 µM): 0.217
- relative viability (NCI-H2087; first compound 0.1265 µM): 0.188
- relative viability (NCI-H2087; first compound 0.4 µM): 0.207
- relative viability (NCI-H2087; first compound 4 µM): 0.168
- relative viability (NCI-H2170; first compound 0.04 µM): 0.661
- relative viability (NCI-H2170; first compound 0.1265 µM): 0.67
- relative viability (NCI-H2170; first compound 0.4 µM): 0.677
- relative viability (NCI-H2170; first compound 4 µM): 0.86
- relative viability (NCI-H2228; first compound 0.04 µM): 0.15
- relative viability (NCI-H2228; first compound 0.1265 µM): 0.128
- relative viability (NCI-H2228; first compound 0.4 µM): 0.171
- relative viability (NCI-H2228; first compound 4 µM): 0.133
- relative viability (NCI-H2405; first compound 0.04 µM): 0.648
- relative viability (NCI-H2405; first compound 0.1265 µM): 0.744
- relative viability (NCI-H2405; first compound 0.4 µM): 0.726
- relative viability (NCI-H2405; first compound 4 µM): 0.612
- relative viability (NCI-H3122; first compound 0.04 µM): 0.0752
- relative viability (NCI-H3122; first compound 0.1265 µM): 0.102
- relative viability (NCI-H3122; first compound 0.4 µM): 0.0706
- relative viability (NCI-H3122; first compound 4 µM): 0.0744
- relative viability (NCI-H460; first compound 0.04 µM): 0.0317
- relative viability (NCI-H460; first compound 0.1265 µM): 0.0406
- relative viability (NCI-H460; first compound 0.4 µM): 0.0348
- relative viability (NCI-H460; first compound 4 µM): 0.0326
- relative viability (PC-3 [JPC-3]; first compound 0.04 µM): 0.744
- relative viability (PC-3 [JPC-3]; first compound 0.1265 µM): 0.684
- relative viability (PC-3 [JPC-3]; first compound 0.4 µM): 0.728
- relative viability (PC-3 [JPC-3]; first compound 4 µM): 0.605
- relative viability (RERF-LC-KJ; first compound 0.04 µM): 1.18
- relative viability (RERF-LC-KJ; first compound 0.1265 µM): 1.18
- relative viability (RERF-LC-KJ; first compound 0.4 µM): 1.19
- relative viability (RERF-LC-KJ; first compound 4 µM): 0.709
- relative viability (UMC-11; first compound 0.04 µM): 1.1
- relative viability (UMC-11; first compound 0.1265 µM): 0.903
- relative viability (UMC-11; first compound 0.4 µM): 1.03
- relative viability (UMC-11; first compound 4 µM): 0.675
